Among the data in DBAASP are MIC values, retold here.

As usually defined, the MIC is the smallest concentration in the dilution series that meets the test's criterion for growth inhibition. A high value points to a need for much substance.

Some test systems named below: Escherichia coli ML-35; Candida albicans; Escherichia coli UB1005; Staphylococcus aureus; Bacillus subtilis; Escherichia coli.
What all share (test): ≥ marks a high value that may be exact or a test limit, other limits are often not marked, values filed in µg/mL are converted to µM
Assay [1] has as its system Candida albicans ATCC 2002.
Assay [2] has as its system Escherichia coli ATCC 25922.
The test system of assay [3] is Pseudomonas aeruginosa CMCCB 10104.
The test system of assay [4] is Staphylococcus aureus ATCC 25923.
For assay [5], the system named is Bacillus subtilis ATCC 23857.
The subject of assay [6] is Staphylococcus epidermidis ATCC 12228.
Assay [7] deals with Staphylococcus aureus ATCC 29213.
Assay [8] relates to Salmonella enterica serovar Typhimurium.
Assay [9] relates to Enterococcus faecalis ATCC 29212.
The test system of assay [10] is Pseudomonas aeruginosa H103.
Assay [11] has as its system Staphylococcus epidermidis.

SMILES strings stand for the structures. ≈ marks a conversion by molar mass, not a printed value.

Turning to `CC[C@H](C)[C@H](NC(=O)CNC(=O)[C@H](C)NC(=O)[C@H](Cc1ccccc1)NC(=O)[C@H](CC(C)C)NC(=O)[C@H](CCCCN)NC(=O)[C@@H]1CCCN1C(=O)[C@H](CC(C)C)NC(=O)[C@@H](N)Cc1ccccc1)C(=O)N[C@H](C(=O)N[C@@H](CO)C(=O)N[C@@H](CCCCN)C(=O)N[C@@H](CC(N)=O)C(=O)N[C@@H](Cc1ccccc1)C(=O)O)[C@@H](C)CC` [FLPKLFAGIISKNF], the MIC came out at 3.32 µM (≈ 5.3 µg/mL) in assay [1], 6.58 µM (≈ 10.5 µg/mL) in [2], 6.58 µM (≈ 10.5 µg/mL) in assay [3] and 13.2 µM (≈ 21 µg/mL) in assay [4].
Regarding `CC[C@H](C)[C@H](NC(=O)CN)C(=O)N[C@@H](Cc1ccccc1)C(=O)N[C@@H](CO)C(=O)N[C@@H](CCCCN)C(=O)N[C@H](C(=O)N[C@@H](CO)C(=O)NCC(=O)N[C@@H](CCCCN)C(=O)N[C@@H](C)C(=O)N[C@H](C(=O)N[C@@H](CCCCN)C(=O)N[C@@H](CC(N)=O)C(=O)N[C@@H](CC(C)C)C(=O)N[C@@H](Cc1ccccc1)C(=O)N[C@H](C(=O)N[C@@H](CCCCN)C(=O)NCC(=O)N[C@@H](C)C(=O)N[C@@H](CCCCN)C(=O)N[C@@H](CC(N)=O)C(=O)N[C@H](C(=O)NCC(=O)N[C@@H](CCCCN)C(=O)N[C@@H](CCC(=O)O)C(=O)N[C@H](C(=O)NCC(=O)N[C@@H](CCSC)C(=O)N[C@@H](CC(=O)O)C(=O)N[C@H](C(=O)N[C@H](C(=O)N[C@@H](CCCN=C(N)N)C(=O)N[C@H](C(=O)NCC(=O)N[C@H](C(=O)N[C@@H](CC(=O)O)C(=O)N[C@H](C(=O)N[C@H](C(=O)NCC(=O)N[C@H]1CSSC[C@@H](C(=O)O)NC(=O)[C@H](CCC(=O)O)NC(=O)CNC(=O)[C@H](CCCCN)NC(=O)[C@H]([C@@H](C)CC)NC(=O)[C@H](CCCCN)NC1=O)C(C)C)C(C)C)[C@@H](C)CC)[C@@H](C)O)C(C)C)C(C)C)C(C)C)C(C)C)[C@@H](C)CC)[C@@H](C)CC)[C@@H](C)CC` [GIFSKISGKAIKNLFIKGAKNVGKEVGMDVVRTGIDVVGCKIKGEC], the MIC in [1] came to 1.83 µM (≈ 8.8 µg/mL); in assay [2] it was 1.83 µM (≈ 8.8 µg/mL); in assay [3], 3.66 µM (≈ 17.6 µg/mL); in assay [4], 0.915 µM (≈ 4.4 µg/mL).
Turning to `CC(C)C[C@H](NC(=O)[C@H](CC(C)C)NC(=O)[C@H](CC(N)=O)NC(=O)[C@H](CCCCN)NC(=O)[C@@H](NC(=O)[C@@H](NC(=O)[C@H](C)NC(=O)[C@H](CC(C)C)NC(=O)[C@@H](NC(=O)CN)C(C)C)[C@@H](C)O)C(C)C)C(=O)N[C@@H](CC(N)=O)C(=O)NCC(=O)N[C@H](C(=O)NCC(=O)N[C@@H](CC(=O)O)C(=O)NCC(=O)N[C@@H](C)C(=O)N[C@@H](C)C(=O)N[C@@H](CCC(N)=O)C(=O)N[C@@H](CO)C(=O)N[C@H](C(=O)N[C@@H](CC(C)C)C(=O)N[C@@H](CCCCN)C(=O)N[C@H](C(=O)N[C@@H](CC(C)C)C(=O)N[C@@H](CO)C(=O)N[C@H]1CSSC[C@@H](C(=O)O)NC(=O)[C@H](CC(=O)O)NC(=O)[C@H](CC(N)=O)NC(=O)[C@H](CO)NC(=O)[C@H](CC(C)C)NC(=O)[C@H](CCCCN)NC1=O)[C@@H](C)O)C(C)C)[C@@H](C)O` [GVLATVKNLLNGTGDGAAQSVLKTLSCKLSNDC], the MIC in [1] was 1.22 µM (≈ 4 µg/mL); in [2], 2.4 µM (≈ 7.9 µg/mL); in assay [3] it was 4.8 µM (≈ 15.8 µg/mL); in assay [4] it was 1.22 µM (≈ 4 µg/mL).
For `CC[C@H](C)[C@H](N)C(=O)N[C@@H](CC(C)C)C(=O)NCC(=O)N[C@H](C(=O)N[C@H](C(=O)N[C@@H](CC(C)C)C(=O)NCC(=O)N1CCC[C@H]1C(=O)N[C@@H](CC(C)C)C(=O)N[C@@H](CCCCN)C(=O)NCC(=O)N[C@@H](CC(C)C)C(N)=O)[C@@H](C)CC)[C@@H](C)O` [ILGTILGPLKGL], the minimum inhibitory concentration (MIC) was at least 256 µM in assay [5]; above 256 µM in [2]; above 256 µM in [6]; at least 256 µM in the assay with Escherichia coli ML-35; above 256 µM in assay [7].
For the compound `NCCCC[C@H](NC(=O)[C@H](Cc1c[nH]c2ccccc12)NC(=O)[C@H](Cc1c[nH]c2ccccc12)NC(=O)[C@H](CCCN=C(N)N)NC(=O)[C@@H](N)CCCCN)C(=O)N[C@@H](Cc1c[nH]c2ccccc12)C(=O)N[C@@H](Cc1c[nH]c2ccccc12)C(=O)N[C@@H](CCCN=C(N)N)C(=O)N[C@@H](CCCN=C(N)N)C(=O)O` [KRWWKWWRR], the MIC in assay [8] came out at 5.6 µM (≈ 8.33 µg/mL); against Candida albicans, 5.6 µM (≈ 8.33 µg/mL); in assay [9], 11.1 µM (≈ 16.5 µg/mL); in the assay on Escherichia coli UB1005, 2.8 µM (≈ 4.17 µg/mL); in assay [4] it was 0.7 µM (≈ 1.04 µg/mL); in assay [10], 11.1 µM (≈ 16.5 µg/mL). In addition, the MIC in assay [11] turned out to be 0.7 µM (≈ 1.04 µg/mL).
On to `NCCCC[C@H](N)C(=O)N[C@@H](CCCN=C(N)N)C(=O)N[C@@H](Cc1c[nH]c2ccccc12)C(=O)N[C@@H](Cc1c[nH]c2ccccc12)C(=O)N[C@@H](Cc1c[nH]c2ccccc12)C(=O)N[C@@H](Cc1c[nH]c2ccccc12)C(=O)N[C@@H](CCCN=C(N)N)C(=O)N[C@@H](Cc1ccccc1)C(=O)N[C@@H](CCCN=C(N)N)C(=O)O` [KRWWWWRFR], for which the MIC in assay [8] is 5.9 µM (≈ 8.89 µg/mL); in the assay on Candida albicans, 5.9 µM (≈ 8.89 µg/mL); in assay [9] it was 11.7 µM (≈ 17.6 µg/mL); with Escherichia coli UB1005 it was 2.9 µM (≈ 4.37 µg/mL); in assay [4], 0.7 µM (≈ 1.05 µg/mL); in [10], at least 46.9 µM. Further, the minimal inhibitory concentration (MIC) in assay [11] stood at 0.7 µM (≈ 1.05 µg/mL).
For `CC[C@H](C)[C@H](NC(=O)[C@H](Cc1ccccc1)NC(=O)[C@H](CCCN=C(N)N)NC(=O)[C@@H](N)CC(C)C)C(=O)N[C@@H](CC(C)C)C(=O)N[C@@H](Cc1c[nH]c2ccccc12)C(=O)N[C@@H](Cc1c[nH]c2ccccc12)C(=O)N[C@@H](CCCCN)C(=O)N[C@@H](CCCN=C(N)N)C(=O)O` [LRFILWWKR], the MIC came to 6.4 µM (≈ 8.43 µg/mL) in [8]; 6.4 µM (≈ 8.43 µg/mL) in the assay on Candida albicans; 6.4 µM (≈ 8.43 µg/mL) in assay [9]; 3.2 µM (≈ 4.22 µg/mL) with Escherichia coli UB1005; 1.6 µM (≈ 2.11 µg/mL) in assay [4]; 25.7 µM (≈ 33.9 µg/mL) in assay [10]. For the same compound, the MIC in assay [11] was 1.6 µM (≈ 2.11 µg/mL).
On to `CC(C)C[C@H](NC(=O)[C@H](CCCCN)NC(=O)[C@H](CCCN=C(N)N)NC(=O)[C@H](Cc1c[nH]c2ccccc12)NC(=O)[C@@H](N)CC(N)=O)C(=O)N[C@@H](Cc1ccc(O)cc1)C(=O)N[C@@H](CCCN=C(N)N)C(=O)N[C@@H](CCCN=C(N)N)C(=O)N[C@@H](CCCCN)C(=O)O` [NWRKLYRRK], for which the minimum inhibitory concentration (MIC) is at least 86.5 µM in [8]; 86.5 µM (≈ 114 µg/mL) in the assay on Candida albicans; above 86.5 µM in [9]; at least 86.5 µM against Escherichia coli UB1005; 86.5 µM (≈ 114 µg/mL) in assay [4]; at least 86.5 µM in assay [10]. The minimum inhibitory concentration (MIC) in assay [11] was at least 43.3 µM.
In the case of `CSCC[C@H](NC(=O)[C@H](CCC(=O)O)NC(=O)[C@H](CS)NC(=O)[C@H](C)NC(=O)[C@@H](NC(=O)CNC(=O)[C@H](C)NC(=O)[C@@H](NC(=O)[C@H](Cc1ccccc1)NC(=O)[C@@H]1CCCN1C(=O)[C@H](CC(C)C)NC(=O)[C@@H](N)CCC(N)=O)C(C)C)C(C)C)C(=O)N[C@@H](CS)C(=O)N[C@@H](CCC(N)=O)C(=O)N[C@@H](CS)C(=O)N[C@H](C(=O)N[C@@H](Cc1ccc(O)cc1)C(=O)N[C@H]1CSSC[C@@H](C(=O)O)NC(=O)[C@H](CCCCN)NC(=O)[C@H](CCCCN)NC(=O)[C@H](CO)NC(=O)[C@H](C)NC(=O)[C@H](C)NC1=O)C(C)C` [QLPFVAGVACEMCQCVYCAASKKC], the minimum inhibitory concentration (MIC) in assay [1] turned out to be 4.47 µM (≈ 11.4 µg/mL); in [2] it was 2.23 µM (≈ 5.7 µg/mL); in assay [3], 2.23 µM (≈ 5.7 µg/mL); in assay [4] it was 4.47 µM (≈ 11.4 µg/mL).
As for `CC[C@H](C)[C@H](NC(=O)[C@@H](N)C(C)C)C(=O)N1CCC[C@H]1C(=O)N[C@@H](Cc1ccccc1)C(=O)N[C@H](C(=O)N[C@@H](C)C(=O)N[C@@H](CO)C(=O)N[C@H](C(=O)N[C@@H](C)C(=O)N[C@@H](C)C(=O)N[C@@H](CCC(=O)O)C(=O)N[C@@H](CCSC)C(=O)N[C@@H](CCSC)C(=O)N[C@@H](CCC(N)=O)C(=O)N[C@@H](Cc1cnc[nH]1)C(=O)N[C@H](C(=O)N[C@@H](Cc1ccc(O)cc1)C(=O)N[C@H]1CSSC[C@@H](C(=O)O)NC(=O)[C@H](CCCCN)NC(=O)[C@H](CCCCN)NC(=O)[C@H](CO)NC(=O)[C@H](C)NC(=O)[C@H](C)NC1=O)C(C)C)C(C)C)C(C)C` [VIPFVASVAAEMMQHVYCAASKKC], the minimum inhibitory concentration (MIC) turned out to be 4.02 µM (≈ 10.4 µg/mL) in assay [1]; 0.677 µM (≈ 1.75 µg/mL) in the assay with Candida albicans; 4.02 µM (≈ 10.4 µg/mL) in assay [2]; 2.01 µM (≈ 5.2 µg/mL) in assay [3]; 8.05 µM (≈ 20.8 µg/mL) in [4]; 1.35 µM (≈ 3.5 µg/mL) in the assay on Staphylococcus aureus. In addition, the MIC with Bacillus subtilis is 0.677 µM (≈ 1.75 µg/mL); in the assay on Escherichia coli, 1.35 µM (≈ 3.5 µg/mL).
As for `CSCC[C@H](NC(=O)[C@H](CCCCN)NC(=O)[C@H](Cc1ccccc1)NC(=O)[C@@H](N)Cc1c[nH]c2ccccc12)C(=O)N[C@@H](CCCN=C(N)N)C(=O)N[C@@H](Cc1c[nH]c2ccccc12)C(=O)N[C@@H](Cc1c[nH]c2ccccc12)C(=O)NCC(=O)N[C@@H](CCCN=C(N)N)C(=O)O` [WFKMRWWGR], the MIC is 23.1 µM (≈ 31.2 µg/mL) in assay [8]; 11.5 µM (≈ 15.6 µg/mL) against Candida albicans; 11.5 µM (≈ 15.6 µg/mL) in [9]; 5.8 µM (≈ 7.85 µg/mL) with Escherichia coli UB1005; 2.9 µM (≈ 3.92 µg/mL) in [4]; at least 46.1 µM in [10]. Besides, the MIC in [11] was determined as 2.9 µM (≈ 3.92 µg/mL).
